≈ marks a conversion by molar mass, not a printed value. Like-named read-outs stand apart in the source and are kept apart here.
Experiments:
Type in all cases: cell-based
[1] = test system: Acinetobacter baumannii (carbapenemase produced: None); assay: MIC against Acinetobacter baumannii, no carbapenemase produced
[2] = test system: resistant Acinetobacter baumannii producing OXA-23; assay: MIC against Acinetobacter baumannii producing OXA-23
[3] = test system: resistant Acinetobacter baumannii producing OXA-48; assay: MIC against Acinetobacter baumannii producing OXA-48
[4] = test system: resistant Acinetobacter baumannii producing KPC-6; assay: MIC against Acinetobacter baumannii producing KPC-6
[5] = test system: resistant Acinetobacter baumannii producing NDM-1; assay: MIC against Acinetobacter baumannii producing NDM-1
[6] = test system: resistant Acinetobacter baumannii producing VIM-2; assay: MIC against Acinetobacter baumannii producing VIM-2
[7] = Acinetobacter baumannii, Table 2, enzyme produced: None, read-out: MIC
[8] = Acinetobacter baumannii, Table 2, enzyme produced: VIM-2, read-out: MIC
[9] = Table 1, carbapenemase produced: None
[10] = Table 1, carbapenemase produced: OXA-23
[11] = Table 2, enzyme produced: OXA-23
[12] = Table 1, carbapenemase produced: OXA-48
[13] = Table 2, enzyme produced: OXA-48
[14] = Acinetobacter baumannii, Table 1, carbapenemase produced: None, read-out: MIC
[15] = Acinetobacter baumannii, Table 1, carbapenemase produced: OXA-23, read-out: MIC
[16] = Acinetobacter baumannii, Table 1, carbapenemase produced: OXA-48, read-out: MIC
[17] = Acinetobacter baumannii, Table 2, enzyme produced: OXA-48, read-out: MIC
[18] = Acinetobacter baumannii, Table 2, enzyme produced: NDM-1, read-out: MIC

Row | MIC [1, 9] [µg/mL] | MIC [2, 10] [mg/L] | MIC [3, 12] [µg/mL] | SMILES | MIC [1, 7] [µg/mL] | MIC ([4]; Acinetobacter baumannii) [µg/mL] | MIC [6, 8] [µg/mL] | MIC [2, 11] [mg/L] | MIC [1, 14] [µg/mL] | MIC [2, 15] [mg/L] | MIC [3, 16] [µg/mL] | MIC [3, 17] [µg/mL] | MIC [5, 18] [µg/mL] | other results
1 | – | – | – | CC1(C)S[C@@H]2[C@H](NC(=O)[C@H](N)c3ccccc3)C(=O)N2[C@H]1C(=O)O [AMP, ampicillin] | 32 (≈ 91.6 µM) | 4100 (≈ 11700 µM) | > 8190 | – | – | – | – | – | – | MIC ([2]; Acinetobacter baumannii, Table 2, enzyme produced: OXA-23, read-out: MIC): 8190 mg/L (≈ 23400 µM); MIC ([3]; Acinetobacter baumannii): 1020 µg/mL (≈ 2930 µM); MIC ([5]; Acinetobacter baumannii): 1020 µg/mL (≈ 2930 µM)
2 | – | – | – | C[C@@H](O)[C@H]1C(=O)N2C(C(=O)O)=C(S[C@@H]3CN[C@H](C(=O)N(C)C)C3)[C@H](C)[C@H]12 [Meropenem, meropenem] | 0.5 (≈ 1.3 µM) | 256 (≈ 668 µM) | 64 (≈ 167 µM) | 64 (≈ 167 µM) | 0.5 (≈ 1.3 µM) | 64 (≈ 167 µM) | 8 (≈ 20.9 µM) | 16 (≈ 41.7 µM) | – | MIC ([5]; Acinetobacter baumannii): 128 µg/mL (≈ 334 µM)
3 | 0.25 (≈ 0.703 µM) | 8 (≈ 22.5 µM) | 16 (≈ 45 µM) | CN(C)C(=O)[C@@H]1C[C@H](SC2=C(C(=O)O)N3C(=O)[C@H](CO)[C@H]3C2)CN1 [Compound 1] | – | – | – | – | – | – | – | – | – | –
4 | – | – | – | C[C@@H](O)[C@H]1C(=O)N2C(C(=O)O)=C(SCCN=CN)C[C@H]12 [Imipenem, imipenem] | 0.25 (≈ 0.835 µM) | – | 32 (≈ 107 µM) | 32 (≈ 107 µM) | 0.25 (≈ 0.835 µM) | 32 (≈ 107 µM) | 16 (≈ 53.4 µM) | 16 (≈ 53.4 µM) | 16 (≈ 53.4 µM) | –
5 | – | – | – | C[C@@H](O)[C@H]1C(=O)N2C(C(=O)O)=C(S[C@@H]3CN[C@H](C(=O)Nc4cccc(C(=O)O)c4)C3)[C@H](C)[C@H]12 [Ertapenem, ertapenem] | 4 (≈ 8.41 µM) | > 512 | – | 256 (≈ 538 µM) | 2 (≈ 4.21 µM) | 256 (≈ 538 µM) | – | – | 256 (≈ 538 µM) | MIC ([3]; Acinetobacter baumannii): 128 µg/mL (≈ 269 µM); MIC [3, 13]: 128 µg/mL (≈ 269 µM); MIC ([6]; Acinetobacter baumannii): > 512 µg/mL
6 | 0.5 (≈ 1.3 µM) | 4 (≈ 10.4 µM) | 1 (≈ 2.61 µM) | C[C@@H](O)[C@H]1C(=O)N2C(C(=O)O)=C(S[C@@H]3CN[C@H](C(=O)N(C)C)C3)CC12C (stereo partly drawn) [Compound 2a, (6S)-6-[(R)-1-Hydroxyethyl]-3-[(3S,5S)-5-(dimethylamino)carbonyl-3-pyrrolidinylthio]-5-methyl-7-oxoazabicyclo[3.2.0]hept-2-ene-2-carboxylate] | – | – | – | – | – | – | – | – | – | –
7 | – | – | – | C[C@@H](O)[C@H]1C(=O)N2C(C(=O)O)=C(S[C@@H]3CN[C@H](CNS(N)(=O)=O)C3)[C@H](C)[C@H]12 [Doripenem, doripenem] | 0.25 (≈ 0.595 µM) | 128 (≈ 304 µM) | 32 (≈ 76.1 µM) | 32 (≈ 76.1 µM) | 0.25 (≈ 0.595 µM) | 32 (≈ 76.1 µM) | 16 (≈ 38 µM) | 16 (≈ 38 µM) | 64 (≈ 152 µM) | –

Row | SMILES | MIC [1, 9] [µg/mL] | MIC [2, 10] [mg/L] | MIC [3, 12] [µg/mL] | MIC [1, 7] [µg/mL] | MIC ([4]; Acinetobacter baumannii) [µg/mL] | MIC [6, 8] [µg/mL] | MIC [2, 11] [mg/L] | MIC [1, 14] [µg/mL] | MIC [2, 15] [mg/L] | MIC [3, 16] [µg/mL] | MIC [3, 17] [µg/mL] | MIC [5, 18] [µg/mL] | other results
8 | CCC12CC(S[C@@H]3CN[C@H](C(=O)N(C)C)C3)=C(C(=O)O)N1C(=O)[C@@H]2[C@@H](C)O (stereo partly drawn) [Compound 2b, (6S)-6-[(R)-1-Hydroxyethyl]-3-[(3S,5S)-5-(dimethylamino)carbonyl-3-pyrrolidinylthio]-5-ethyl-7-oxoazabicyclo[3.2.0]hept-2-ene-2-carboxylate] | 2 (≈ 5.03 µM) | 4 (≈ 10.1 µM) | 4 (≈ 10.1 µM) | – | – | – | 4 (≈ 10.1 µM) | – | – | – | – | – | MIC ([1]; Table 2, enzyme produced: None): 2 µg/mL (≈ 5.03 µM); MIC [3, 13]: 4 µg/mL (≈ 10.1 µM); MIC ([4]; Table 2, enzyme produced: KPC-6): 4 µg/mL (≈ 10.1 µM); MIC ([5]; Table 2, enzyme produced: NDM-1): 2 µg/mL (≈ 5.03 µM); MIC ([6]; Table 2, enzyme produced: VIM-2): 4 µg/mL (≈ 10.1 µM)
